From patent US12077503B2, “Substituted cyclic amides and their use as herbicides” (FMC CORPORATION, priority 2015, dated 2024)

Legend:
Experiment in all cases: Test C preemergence
Assay type in all cases: in vivo
Details in all cases: scale 0 to 100, 0 no effect, 100 complete control
[1] = tested on: nutsedge, yellow (yellow nutsedge, Cyperus esculentus)
From the text: (§1) Seeds of plant species selected from blackgrass (Alopecurus myosuroides), ryegrass, Italian (Italian ryegrass, Lolium multiflorum), wheat (winter wheat, Triticum aestivum), Galium (catchweed bedstraw, Galium aparine), corn (Zea mays), crabgrass, large (large crabgrass, Digitaria sanguinalis), foxtail, giant (giant foxtail, Setaria faberii), johnsongrass (Sorghum halepense), lambsquarters (Chenopodium album), morningglory (Ipomoea coccinea), nutsedge, yellow (yellow nutsedge, Cyperus esculentus), pigweed (Amaranthus retroflexus), ragweed (common ragweed, Ambrosia elatior), soybean (Glycine max), barnyardgrass (Echinochloa crus-galli), oilseed rape (Brassica napus), waterhemp (common waterhemp, Amaranthus rudis) and velvetleaf (Abutilon theophrasti) were planted into a blend of loam soil and sand and treated preemergence with test chemicals formulated in a non-phytotoxic solvent mixture which included a surfactant.
(§2) At the same time, plants selected from these crop and weed species and also Kochia (Kochia scoparia), oat, wild (wild oat, Avena fatua), and chickweed (common chickweed, Stellaria media) were planted in pots containing Sunshine Redi-Earth® planting medium comprising spaghnum peat moss, vermiculite, starter nutrients and dolomitic limestone and treated with postemergence applications of test chemicals formulated in the same manner. Plants ranged in height from 2 to 18 cm (1- to 4-leaf stage) for postemergence treatments. Treated plants and controls were maintained in a greenhouse for 13 to 15 d, after which time all species were compared to controls and visually evaluated. Plant response ratings, summarized in Table C, are based on a scale of 0 to 100 where 0 is no effect and 100 is complete control. A dash (-) response means no test result.

[2] = tested on: crabgrass, large (large crabgrass, Digitaria sanguinalis)
From the text: as §1, §2

[3] = tested on: blackgrass (Alopecurus myosuroides)
From the text: as §1, §2

[4] = tested on: wheat (winter wheat, Triticum aestivum)
From the text: as §1, §2

[5] = tested on: waterhemp (common waterhemp, Amaranthus rudis)
From the text: as §1, §2

[6] = tested on: ryegrass, Italian (Italian ryegrass, Lolium multiflorum)
From the text: as §1, §2

[7] = tested on: johnsongrass (Sorghum halepense)
From the text: as §1, §2

[8] = tested on: foxtail, giant (giant foxtail, Setaria faberii)
From the text: as §1, §2

[9] = tested on: barnyardgrass (Echinochloa crus-galli)
From the text: as §1, §2

soybean (Glycine max) = tested on: soybean (Glycine max)
From the text: as §1, §2

[10] = tested on: morningglory (Ipomoea coccinea)
From the text: as §1, §2

[11] = tested on: lambsquarters (Chenopodium album)
From the text: as §1, §2

corn (Zea mays) = tested on: corn (Zea mays)
From the text: as §1, §2

[12] = tested on: ragweed (common ragweed, Ambrosia elatior)
From the text: as §1, §2

[13] = tested on: velvetleaf (Abutilon theophrasti)
From the text: as §1, §2

[14] = tested on: pigweed (Amaranthus retroflexus)
From the text: as §1, §2

[15] = tested on: oilseed rape (Brassica napus)
From the text: as §1, §2

[16] = tested on: Galium (catchweed bedstraw, Galium aparine)
From the text: as §1, §2

## CN1CC(c2cccc(OC(F)(F)C(F)F)c2)C(C(=O)Nc2cccc(F)c2F)C1=O (stereo not shown) [Compound 392]
[1]; 31 g ai/ha
  Plant response rating, Nutsedge, Yellow: 0
[1]; 62 g ai/ha
  Plant response rating, Nutsedge, Yellow: 0
[1]; 125 g ai/ha
  Plant response rating, Nutsedge, Yellow: 0
[1]; 250 g ai/ha
  Plant response rating, Nutsedge, Yellow: 0
[2]; 31 g ai/ha
  Plant response rating, Crabgrass, Large: 90
[2]; 62 g ai/ha
  Plant response rating, Crabgrass, Large: 95
[2]; 125 g ai/ha
  Plant response rating, Crabgrass, Large: 95
[2]; 250 g ai/ha
  Plant response rating, Crabgrass, Large: 95
[3]; 31 g ai/ha
  Plant response rating, Blackgrass: 20
[3]; 62 g ai/ha
  Plant response rating, Blackgrass: 45
[3]; 125 g ai/ha
  Plant response rating, Blackgrass: 70
[3]; 250 g ai/ha
  Plant response rating, Blackgrass: 60
[4]; 62 g ai/ha
  Plant response rating, Wheat: 35
[4]; 125 g ai/ha
  Plant response rating, Wheat: 80
[4]; 250 g ai/ha
  Plant response rating, Wheat: 75
[5]; 62 g ai/ha
  Plant response rating, Waterhemp: 85
[5]; 125 g ai/ha
  Plant response rating, Waterhemp: 90
[5]; 250 g ai/ha
  Plant response rating, Waterhemp: 90
[6]; 62 g ai/ha
  Plant response rating, Ryegrass, Italian: 40
[6]; 125 g ai/ha
  Plant response rating, Ryegrass, Italian: 55
[6]; 250 g ai/ha
  Plant response rating, Ryegrass, Italian: 90
[7]; 31 g ai/ha
  Plant response rating, Johnsongrass: 70
[7]; 62 g ai/ha
  Plant response rating, Johnsongrass: 85
[7]; 125 g ai/ha
  Plant response rating, Johnsongrass: 85
[7]; 250 g ai/ha
  Plant response rating, Johnsongrass: 90
[8]; 31 g ai/ha
  Plant response rating, Foxtail, Giant: 90
[8]; 62 g ai/ha
  Plant response rating, Foxtail, Giant: 95
[8]; 125 g ai/ha
  Plant response rating, Foxtail, Giant: 95
[8]; 250 g ai/ha
  Plant response rating, Foxtail, Giant: 95
[9]; 31 g ai/ha
  Plant response rating, Barnyardgrass: 90
[9]; 62 g ai/ha
  Plant response rating, Barnyardgrass: 90
[9]; 125 g ai/ha
  Plant response rating, Barnyardgrass: 90
[9]; 250 g ai/ha
  Plant response rating, Barnyardgrass: 95
Soybean (Glycine max); 62 g ai/ha
  Plant response rating, Soybean: 100
Soybean (Glycine max); 125 g ai/ha
  Plant response rating, Soybean: 15
Soybean (Glycine max); 250 g ai/ha
  Plant response rating, Soybean: 5
[10]; 31 g ai/ha
  Plant response rating, Morningglory: 0
[10]; 62 g ai/ha
  Plant response rating, Morningglory: 0
[10]; 125 g ai/ha
  Plant response rating, Morningglory: 0
[10]; 250 g ai/ha
  Plant response rating, Morningglory: 15
[11]; 31 g ai/ha
  Plant response rating, Lambsquarters: 60
[11]; 62 g ai/ha
  Plant response rating, Lambsquarters: 70
[11]; 125 g ai/ha
  Plant response rating, Lambsquarters: 75
[11]; 250 g ai/ha
  Plant response rating, Lambsquarters: 75
Corn (Zea mays); 31 g ai/ha
  Plant response rating, Corn: 45
Corn (Zea mays); 62 g ai/ha
  Plant response rating, Corn: 65
Corn (Zea mays); 125 g ai/ha
  Plant response rating, Corn: 55
Corn (Zea mays); 250 g ai/ha
  Plant response rating, Corn: 75
[12]; 31 g ai/ha
  Plant response rating, Ragweed: 70
[12]; 62 g ai/ha
  Plant response rating, Ragweed: 45
[12]; 125 g ai/ha
  Plant response rating, Ragweed: 60
[12]; 250 g ai/ha
  Plant response rating, Ragweed: 70
[13]; 62 g ai/ha
  Plant response rating, Velvetleaf: 40
[13]; 125 g ai/ha
  Plant response rating, Velvetleaf: 60
[13]; 250 g ai/ha
  Plant response rating, Velvetleaf: 70
[14]; 31 g ai/ha
  Plant response rating, Pigweed: 75
[14]; 62 g ai/ha
  Plant response rating, Pigweed: 80
[14]; 125 g ai/ha
  Plant response rating, Pigweed: 85
[14]; 250 g ai/ha
  Plant response rating, Pigweed: 90
[15]; 31 g ai/ha
  Plant response rating, Oilseed Rape: 70
[15]; 62 g ai/ha
  Plant response rating, Oilseed Rape: 80
[15]; 125 g ai/ha
  Plant response rating, Oilseed Rape: 85
[15]; 250 g ai/ha
  Plant response rating, Oilseed Rape: 90

## O=C1NCC(c2ccc(Br)cc2)C1C(=O)Nc1cccc(F)c1F (stereo not shown) [Compound 446]
[1]; 31 g ai/ha
  Plant response rating, Nutsedge, Yellow: 0
[1]; 62 g ai/ha
  Plant response rating, Nutsedge, Yellow: 0
[1]; 125 g ai/ha
  Plant response rating, Nutsedge, Yellow: 0
[1]; 250 g ai/ha
  Plant response rating, Nutsedge, Yellow: 0
[16]; 31 g ai/ha
  Plant response rating, Galium: 0
[16]; 62 g ai/ha
  Plant response rating, Galium: 90
[16]; 125 g ai/ha
  Plant response rating, Galium: 90
[16]; 250 g ai/ha
  Plant response rating, Galium: 95
[2]; 31 g ai/ha
  Plant response rating, Crabgrass, Large: 100
[2]; 62 g ai/ha
  Plant response rating, Crabgrass, Large: 100
[2]; 125 g ai/ha
  Plant response rating, Crabgrass, Large: 100
[2]; 250 g ai/ha
  Plant response rating, Crabgrass, Large: 100
[3]; 31 g ai/ha
  Plant response rating, Blackgrass: 0
[3]; 62 g ai/ha
  Plant response rating, Blackgrass: 0
[3]; 125 g ai/ha
  Plant response rating, Blackgrass: 50
[3]; 250 g ai/ha
  Plant response rating, Blackgrass: 55
[4]; 62 g ai/ha
  Plant response rating, Wheat: 0
[4]; 125 g ai/ha
  Plant response rating, Wheat: 0
[4]; 250 g ai/ha
  Plant response rating, Wheat: 30
[5]; 62 g ai/ha
  Plant response rating, Waterhemp: 100
[5]; 125 g ai/ha
  Plant response rating, Waterhemp: 80
[5]; 250 g ai/ha
  Plant response rating, Waterhemp: 98
[6]; 62 g ai/ha
  Plant response rating, Ryegrass, Italian: 0
[6]; 125 g ai/ha
  Plant response rating, Ryegrass, Italian: 0
[6]; 250 g ai/ha
  Plant response rating, Ryegrass, Italian: 45
[7]; 31 g ai/ha
  Plant response rating, Johnsongrass: 20
[7]; 62 g ai/ha
  Plant response rating, Johnsongrass: 40
[7]; 125 g ai/ha
  Plant response rating, Johnsongrass: 50
[7]; 250 g ai/ha
  Plant response rating, Johnsongrass: 65
[8]; 31 g ai/ha
  Plant response rating, Foxtail, Giant: 85
[8]; 62 g ai/ha
  Plant response rating, Foxtail, Giant: 90
[8]; 125 g ai/ha
  Plant response rating, Foxtail, Giant: 90
[8]; 250 g ai/ha
  Plant response rating, Foxtail, Giant: 95
[9]; 31 g ai/ha
  Plant response rating, Barnyardgrass: 90
[9]; 62 g ai/ha
  Plant response rating, Barnyardgrass: 90
[9]; 125 g ai/ha
  Plant response rating, Barnyardgrass: 90
[9]; 250 g ai/ha
  Plant response rating, Barnyardgrass: 95
Soybean (Glycine max); 62 g ai/ha
  Plant response rating, Soybean: 20
Soybean (Glycine max); 125 g ai/ha
  Plant response rating, Soybean: 10
Soybean (Glycine max); 250 g ai/ha
  Plant response rating, Soybean: 25
[10]; 31 g ai/ha
  Plant response rating, Morningglory: 0
[10]; 62 g ai/ha
  Plant response rating, Morningglory: 0
[10]; 125 g ai/ha
  Plant response rating, Morningglory: 0
[10]; 250 g ai/ha
  Plant response rating, Morningglory: 0
[11]; 31 g ai/ha
  Plant response rating, Lambsquarters: 60
[11]; 62 g ai/ha
  Plant response rating, Lambsquarters: 50
[11]; 125 g ai/ha
  Plant response rating, Lambsquarters: 55
[11]; 250 g ai/ha
  Plant response rating, Lambsquarters: 95
Corn (Zea mays); 31 g ai/ha
  Plant response rating, Corn: 0
Corn (Zea mays); 62 g ai/ha
  Plant response rating, Corn: 0
Corn (Zea mays); 125 g ai/ha
  Plant response rating, Corn: 0
Corn (Zea mays); 250 g ai/ha
  Plant response rating, Corn: 10
[12]; 31 g ai/ha
  Plant response rating, Ragweed: 25
[12]; 62 g ai/ha
  Plant response rating, Ragweed: 40
[12]; 125 g ai/ha
  Plant response rating, Ragweed: 75
[12]; 250 g ai/ha
  Plant response rating, Ragweed: 85
[13]; 62 g ai/ha
  Plant response rating, Velvetleaf: 0
[13]; 125 g ai/ha
  Plant response rating, Velvetleaf: 10
[13]; 250 g ai/ha
  Plant response rating, Velvetleaf: 30
[14]; 31 g ai/ha
  Plant response rating, Pigweed: 50
[14]; 62 g ai/ha
  Plant response rating, Pigweed: 75
[14]; 125 g ai/ha
  Plant response rating, Pigweed: 80
[14]; 250 g ai/ha
  Plant response rating, Pigweed: 85
[15]; 31 g ai/ha
  Plant response rating, Oilseed Rape: 0
[15]; 62 g ai/ha
  Plant response rating, Oilseed Rape: 85
[15]; 125 g ai/ha
  Plant response rating, Oilseed Rape: 90
[15]; 250 g ai/ha
  Plant response rating, Oilseed Rape: 95
